# In US10670576B2, “Device and method for measuring impedance in organotypic tissues” (Universität Leipzig, priority 2008, dated 2020):
# System: hippocampal slice cultures
# Experiment: Impedance measurement (TIECIR) of organotypic hippocampal slice cultures after induction of tau-hyperphosphorylation
# Format: cell-based
# Settings: 1 μM, hippocampal slices of 8-9 day old rats, 7 days in culture, 100 Hz to 1 MHz, 10 mV, stable for 9 hours before application, remained small within the next seven hours
# Description: The impedance changes caused by tau-hyperphosphorylation (FIG. 11) of hippocampal slices that were prepared from 8-9 day old rats were measured using the device according to the present invention. Six to eight hippocampal slices of 400 μm thickness were places on a aluminiumoxyd membrane (0.02 μm pore size) of a 6-well recording chamber and cultured for 7 days in 50% minimum essential media, 25% Hank's media, and 25% horse serum supplemented with L-glutamine and antibiotics. Impedance recording was performed by using a Agilent 4294A impedance analyser (Agilent Technologies Deutschland GmbH, Germany) in combination with a multiplexer (NI-SCXI-1153, National Instruments, USA).
# 24 hours before impedance measurement was carried out, medium replaced by fresh culture medium. The impedance was recorded in a frequency range of 100 Hz to 1 MHz by applying a voltage of 10 mV across a large top electrode and 60 substrate integrated bottom electrodes of 30 μm in diameter.
# For measuring hippocampal slice cultures, the TIECIR method was used. Organotypic slice cultures were transiently covered with medium during impedance measurement, which usually takes less than 30 seconds for a single bottom electrode. […]
structure (smiles),measurement,value
C=C1[C@@H](O)[C@@H]2O[C@]3(CC[C@H](/C=C/[C@@H](C)[C@@H]4CC(C)=C[C@@]5(O[C@H](C[C@@](C)(O)C(=O)O)CC[C@H]5O)O4)O3)CC[C@H]2O[C@@H]1[C@@H](O)C[C@H](C)[C@H]1O[C@@]2(CCCCO2)CC[C@H]1C [ocadaic acid],normalized impedance (normalized against non-covered membrane),10%
